Patent US8252832B2, “Kinesin inhibitors as cancer therapeutics” (Novartis AG, priority 2007, dated 2012)
Read-outs that look alike come from different tables or passages of the source.

System: panel of cell lines and tumor explants
Experiment: Soft agar (clonogenic) assay on cell lines and tumor explants
Format: cell-based, human
Set-up: key to Differential: panel average log(GI50) minus sample log(GI50); positive = more sensitive
Details: for Differential: average log(GI50) 0.236 minus log(GI50); for GI50: Homo sapiens
Protocol: Compound IIa was tested against a panel of cell lines and tumor explants in a soft agar assay as described in Fiebig, H. H., Maier, A., and Burger, A. M. (Clonogenic assay with established human tumour xenorafts: correlation of in vitro to in vivo activity as a basis for anticancer drug discovery, Eur. J. Cancer 40, 802-820 (2004).) Table 16 lists the type of cancer, the name of the sample, its GI50 (concentration needed to achieve 50% growth inhibition) value in the assay, the logarithm of the GI50 (log(GI50), and the relative sensitivity of each sample (Differential). The differential is calculated by subtracting the log(GI50) for each cell line from the average log(GI50) across the entire panel (0.236 in this case); a positive value indicates a sample that is more sensitive than average, whereas a negative value indicates a sample that is less sensitive than average.

CC(C)(C)[C@H](c1nc(-c2cc(F)ccc2F)cn1Cc1ccccc1)N(CC[C@H](N)CF)C(=O)CO [Compound IIa]
Differential (Bladder, sample 439): −0.764 | Differential (Bladder, sample 1036): 1.176 | Differential (Bladder, sample 1218): 0.530 | Differential (Bladder, sample 1228): 0.738 | Differential (Bladder, sample 1258): −0.996 | Differential (Bladder, sample 1352): 0.249 | Differential (Breast, sample 401): 0.486 | Differential (Breast, sample 449): 0.509 | Differential (Breast, sample 574): −0.764 | Differential (Breast, sample 583): 0.858 | Differential (Breast, sample 713): 0.849 | Differential (Breast, sample 857): −0.154 | Differential (Breast, sample 1162): 0.780 | Differential (Breast, sample 1322): 0.090 | Differential (Breast, sample 1384): −0.189 | Differential (Breast, sample 1398): 0.858 | Differential (Colorectal, sample 94LX): −1.054 | Differential (Colorectal, sample 158): −0.764 | Differential (Colorectal, sample 233): 0.860 | Differential (Colorectal, sample 243): −0.764 | Differential (Colorectal, sample 260): −0.764 | Differential (Colorectal, sample 268): −0.559 | Differential (Colorectal, sample 280): −0.764 | Differential (Colorectal, sample 504): 0.800 | Differential (Colorectal, sample 533): −0.007 | Differential (Colorectal, sample 609): −0.764 | Differential (Colorectal, sample 647): −0.764 | Differential (Colorectal, sample 676): −0.764 | Differential (Colorectal, sample 742): −0.036 | Differential (Colorectal, sample 975): −0.764 | Differential (Colorectal, sample 1034): 0.906 | Differential (Colorectal, sample 1044): 0.450 | Differential (Colorectal, sample 1103): 0.236 | Differential (Colorectal, sample 1297): −0.764 | Differential (Colorectal, sample 1299): −0.764 | Differential (Colorectal, sample 1729): −0.764 | Differential (Colorectal, sample 1753): −0.816 | Differential (Colorectal, sample 1783): 0.378 | Differential (Colorectal, sample 1784): −0.539 | Differential (Colorectal, sample 1788): −0.115 | Differential (Gastric, sample 209): −0.764 | Differential (Gastric, sample 214): −0.718 | Differential (Gastric, sample 1172): −0.764 | GI50 (22Rv1, Prostate, sample 22RV1, GI50 in nM, read-out: log(GI50) (converted)): 0.537 nM | GI50 (22Rv1, Prostate, sample 22RV1, read-out: GI50): 0.537 nM | GI50 (Bladder, sample 439, GI50 in nM, read-out: log(GI50) (converted)): ≥ 10 nM | GI50 (Bladder, sample 439, read-out: GI50): 10 nM | GI50 (Bladder, sample 1036, GI50 in nM, read-out: log(GI50) (converted)): 0.115 nM | GI50 (Bladder, sample 1036, read-out: GI50): 0.115 nM | GI50 (Bladder, sample 1218, GI50 in nM, read-out: log(GI50) (converted)): 0.509 nM | GI50 (Bladder, sample 1218, read-out: GI50): 0.509 nM | GI50 (Bladder, sample 1228, GI50 in nM, read-out: log(GI50) (converted)): 0.315 nM | GI50 (Bladder, sample 1228, read-out: GI50): 0.315 nM | GI50 (Bladder, sample 1258, GI50 in nM, read-out: log(GI50) (converted)): 17.1 nM | GI50 (Bladder, sample 1258, read-out: GI50): 17.1 nM | GI50 (Bladder, sample 1352, GI50 in nM, read-out: log(GI50) (converted)): 0.973 nM | GI50 (Bladder, sample 1352, read-out: GI50): 0.972 nM | GI50 (Breast, sample 401, GI50 in nM, read-out: log(GI50) (converted)): 0.564 nM | GI50 (Breast, sample 401, read-out: GI50): 0.563 nM | GI50 (Breast, sample 449, GI50 in nM, read-out: log(GI50) (converted)): 0.535 nM | GI50 (Breast, sample 449, read-out: GI50): 0.534 nM | GI50 (Breast, sample 574, GI50 in nM, read-out: log(GI50) (converted)): ≥ 10 nM | GI50 (Breast, sample 574, read-out: GI50): 10 nM | GI50 (Breast, sample 583, GI50 in nM, read-out: log(GI50) (converted)): 0.239 nM | GI50 (Breast, sample 583, read-out: GI50): 0.239 nM | GI50 (Breast, sample 713, GI50 in nM, read-out: log(GI50) (converted)): 0.244 nM | GI50 (Breast, sample 713, read-out: GI50): 0.244 nM | GI50 (Breast, sample 857, GI50 in nM, read-out: log(GI50) (converted)): 2.45 nM | GI50 (Breast, sample 857, read-out: GI50): 2.46 nM | GI50 (Breast, sample 1162, GI50 in nM, read-out: log(GI50) (converted)): 0.286 nM | GI50 (Breast, sample 1162, read-out: GI50): 0.286 nM | GI50 (Breast, sample 1322, GI50 in nM, read-out: log(GI50) (converted)): 1.4 nM | GI50 (Breast, sample 1322, read-out: GI50): 1.4 nM | GI50 (Breast, sample 1384, GI50 in nM, read-out: log(GI50) (converted)): 2.67 nM | GI50 (Breast, sample 1384, read-out: GI50): 2.67 nM | GI50 (Breast, sample 1398, GI50 in nM, read-out: log(GI50) (converted)): 0.239 nM | GI50 (Breast, sample 1398, read-out: GI50): 0.239 nM | GI50 (CCRF-CEM, Leukemia (ALL), sample CCRFCEM, GI50 in nM, read-out: log(GI50) (converted)): 0.287 nM | GI50 (CCRF-CEM, Leukemia (ALL), sample CCRFCEM, read-out: GI50): 0.287 nM | GI50 (Colorectal, sample 94LX, GI50 in nM, read-out: log(GI50) (converted)): 19.5 nM | GI50 (Colorectal, sample 94LX, read-out: GI50): 19.5 nM | GI50 (Colorectal, sample 158, GI50 in nM, read-out: log(GI50) (converted)): ≥ 10 nM | GI50 (Colorectal, sample 158, read-out: GI50): 10 nM | GI50 (Colorectal, sample 233, GI50 in nM, read-out: log(GI50) (converted)): 0.238 nM | GI50 (Colorectal, sample 233, read-out: GI50): 0.238 nM | GI50 (Colorectal, sample 243, GI50 in nM, read-out: log(GI50) (converted)): ≥ 10 nM | GI50 (Colorectal, sample 243, read-out: GI50): 10 nM | GI50 (Colorectal, sample 260, GI50 in nM, read-out: log(GI50) (converted)): ≥ 10 nM | GI50 (Colorectal, sample 260, read-out: GI50): 10 nM | GI50 (Colorectal, sample 268, GI50 in nM, read-out: log(GI50) (converted)): 6.24 nM | GI50 (Colorectal, sample 268, read-out: GI50): 6.24 nM | GI50 (Colorectal, sample 280, GI50 in nM, read-out: log(GI50) (converted)): ≥ 10 nM | GI50 (Colorectal, sample 280, read-out: GI50): 10 nM | GI50 (Colorectal, sample 504, GI50 in nM, read-out: log(GI50) (converted)): 0.273 nM | GI50 (Colorectal, sample 504, read-out: GI50): 0.273 nM | GI50 (Colorectal, sample 533, GI50 in nM, read-out: log(GI50) (converted)): 1.75 nM | GI50 (Colorectal, sample 533, read-out: GI50): 1.75 nM | GI50 (Colorectal, sample 609, GI50 in nM, read-out: log(GI50) (converted)): ≥ 10 nM | GI50 (Colorectal, sample 609, read-out: GI50): 10 nM | GI50 (Colorectal, sample 647, GI50 in nM, read-out: log(GI50) (converted)): ≥ 10 nM | GI50 (Colorectal, sample 647, read-out: GI50): 10 nM | GI50 (Colorectal, sample 676, GI50 in nM, read-out: log(GI50) (converted)): ≥ 10 nM | GI50 (Colorectal, sample 676, read-out: GI50): 10 nM | GI50 (Colorectal, sample 742, GI50 in nM, read-out: log(GI50) (converted)): 1.87 nM | GI50 (Colorectal, sample 742, read-out: GI50): 1.87 nM | GI50 (Colorectal, sample 975, GI50 in nM, read-out: log(GI50) (converted)): ≥ 10 nM | GI50 (Colorectal, sample 975, read-out: GI50): 10 nM | GI50 (Colorectal, sample 1034, GI50 in nM, read-out: log(GI50) (converted)): 0.214 nM | GI50 (Colorectal, sample 1034, read-out: GI50): 0.214 nM | GI50 (Colorectal, sample 1044, GI50 in nM, read-out: log(GI50) (converted)): 0.612 nM | GI50 (Colorectal, sample 1044, read-out: GI50): 0.612 nM | GI50 (Colorectal, sample 1103, GI50 in nM, read-out: log(GI50) (converted)): 1 nM | GI50 (Colorectal, sample 1103, read-out: GI50): 1 nM | GI50 (Colorectal, sample 1297, GI50 in nM, read-out: log(GI50) (converted)): ≥ 10 nM | GI50 (Colorectal, sample 1297, read-out: GI50): 10 nM | GI50 (Colorectal, sample 1299, GI50 in nM, read-out: log(GI50) (converted)): ≥ 10 nM | GI50 (Colorectal, sample 1299, read-out: GI50): 10 nM | GI50 (Colorectal, sample 1729, GI50 in nM, read-out: log(GI50) (converted)): ≥ 10 nM | GI50 (Colorectal, sample 1729, read-out: GI50): 10 nM | GI50 (Colorectal, sample 1753, GI50 in nM, read-out: log(GI50) (converted)): 11.3 nM | GI50 (Colorectal, sample 1753, read-out: GI50): 11.3 nM | GI50 (Colorectal, sample 1783, GI50 in nM, read-out: log(GI50) (converted)): 0.721 nM | GI50 (Colorectal, sample 1783, read-out: GI50): 0.721 nM | GI50 (Colorectal, sample 1784, GI50 in nM, read-out: log(GI50) (converted)): 5.97 nM | GI50 (Colorectal, sample 1784, read-out: GI50): 5.97 nM | GI50 (Colorectal, sample 1788, GI50 in nM, read-out: log(GI50) (converted)): 2.24 nM | GI50 (Colorectal, sample 1788, read-out: GI50): 2.25 nM | GI50 (DU-145, Prostate, sample DU145, GI50 in nM, read-out: log(GI50) (converted)): 1 nM | GI50 (DU-145, Prostate, sample DU145, read-out: GI50): 1 nM | GI50 (Gastric, sample 209, GI50 in nM, read-out: log(GI50) (converted)): ≥ 10 nM | GI50 (Gastric, sample 209, read-out: GI50): 10 nM | GI50 (Gastric, sample 214, GI50 in nM, read-out: log(GI50) (converted)): 8.99 nM | GI50 (Gastric, sample 214, read-out: GI50): 9 nM | GI50 (Gastric, sample 1172, GI50 in nM, read-out: log(GI50) (converted)): ≥ 10 nM | GI50 (Gastric, sample 1172, read-out: GI50): 10 nM | GI50 (Jurkat, Leukemia (ALL), sample JURKAT, GI50 in nM, read-out: log(GI50) (converted)): 0.106 nM | GI50 (Jurkat, Leukemia (ALL), sample JURKAT, read-out: GI50): 0.106 nM | GI50 (K562, Leukemia (CML), sample K562, GI50 in nM, read-out: log(GI50) (converted)): 0.27 nM | GI50 (K562, Leukemia (CML), sample K562, read-out: GI50): 0.27 nM | GI50 (MOLT-4, Leukemia (ALL), sample MOLT4, GI50 in nM, read-out: log(GI50) (converted)): 0.877 nM
